Source: the Kinase Knowledgebase extract (Sharma et al. 2016)

Biological target: CDK2 (human) (UniProt P24941)
Assay: Enzyme Assay

IC50 [nM]	SMILES
< 500	CCOC(=O)c1cc(-c2csc(-c3ccnc(NCC4CCCC4)c3)n2)c(=O)[nH]c1C
< 500	Cc1[nH]c(=O)c(-c2csc(-c3ccncc3)n2)cc1Br
< 500	CCOC(=O)c1cc(-c2csc(CS(=O)(=O)c3cccs3)n2)c(=O)[nH]c1C
< 500	CCOC(=O)c1cc(-c2csc(CSc3ccccc3)n2)c(=O)[nH]c1C
< 500	CCOC(=O)c1cc(-c2csc(-c3ccnc(NC)c3)n2)c(=O)[nH]c1C
< 500	CCOC(=O)c1cc(-c2csc(-c3ccnc(NCCN(CC)CC)c3)n2)c(=O)[nH]c1C
< 500	CCOC(=O)c1cc(-c2csc(CS(=O)(=O)c3ccccc3)n2)c(=O)[nH]c1COCc1ccccc1
< 500	CCN(CC)CCCOC(=O)c1cc(-c2csc(-c3ccncc3)n2)c(=O)[nH]c1C(C)C
< 500	CCOC(=O)c1cc(-c2csc(-c3ccnc(NCc4ccccn4)c3)n2)c(=O)[nH]c1C
< 500	Cc1[nH]c(=O)c(-c2csc(-c3ccnc(NCc4ccccn4)c3)n2)cc1C(=O)NCc1ccccn1
< 500	CCOC(=O)c1cc(-c2csc(-c3ccnc(NCc4cccnc4)c3)n2)c(=O)[nH]c1C
< 500	CCOC(=O)c1cc(-c2csc(CS(=O)(=O)c3cccs3)n2)c(=O)[nH]c1CC
< 500	CCOC(=O)c1cc(-c2csc(CS(=O)(=O)c3ccccc3)n2)c(=O)[nH]c1CC
< 500	CCOC(=O)c1cc(-c2csc(NC)n2)c(=O)[nH]c1C
< 500	CCOC(=O)c1cc(-c2csc(-c3ccnc(NCC4CC4)c3)n2)c(=O)[nH]c1C
< 500	CCOC(=O)c1cc(-c2csc(CS(=O)(=O)c3ccccc3)n2)c(=O)[nH]c1C1CC1
< 500	CCOC(=O)c1cc(-c2csc(-c3ccnc(NC)c3)n2)c(=O)[nH]c1C(C)C
< 500	CCOC(=O)c1cc(-c2csc(-c3ccnc(N)c3)n2)c(=O)[nH]c1C
< 500	CCCc1[nH]c(=O)c(-c2csc(CS(=O)(=O)c3cccs3)n2)cc1C(=O)OCC
< 500	CCOC(=O)c1cc(-c2csc(C(C)(C)S(=O)(=O)c3ccccc3)n2)c(=O)[nH]c1C
< 500	CCOC(=O)c1cc(-c2csc(-c3ccncc3)n2)c(=O)[nH]c1CC
< 500	CCOC(=O)c1cc(-c2csc(CS(=O)(=O)c3ccccn3)n2)c(=O)[nH]c1C
< 500	CCOC(=O)c1cc(-c2csc(-c3ccnc(Cl)c3)n2)c(=O)[nH]c1C
< 500	CCOC(=O)c1cc(-c2csc(-c3ccnc(NCC(C)C)c3)n2)c(=O)[nH]c1C
< 500	CC(C)c1ccc(-c2csc(-c3ccncc3)n2)c(=O)[nH]1

IC50 [nM]	SMILES
< 500	CCOC(=O)c1cc(-c2csc(-c3ccnc(NCc4ccco4)c3)n2)c(=O)[nH]c1C
< 500	CCOC(=O)c1cc(-c2csc(-c3ccncc3)n2)c(=O)[nH]c1COCc1ccccc1
< 500	CCOC(=O)c1cc(-c2csc(-c3ccncc3)n2)c(=O)[nH]c1C
< 500	CCc1[nH]c(=O)c(-c2csc(-c3ccncc3)n2)cc1C(=O)OCCN1CCCC1
< 500	CCCc1[nH]c(=O)c(-c2csc(-c3ccncc3)n2)cc1C(=O)OCC
< 500	CCc1ccc(-c2csc(-c3ccncc3)n2)c(=O)[nH]1
< 500	CCOC(=O)c1cc(-c2csc(-c3ccnc(NCC(N)=O)c3)n2)c(=O)[nH]c1C
< 500	CCOC(=O)c1cc(-c2csc(-c3ccnc(CC)c3)n2)c(=O)[nH]c1C
< 500	CCOC(=O)c1cc(-c2csc(-c3ccnc(NCCNC(C)=O)c3)n2)c(=O)[nH]c1C
< 500	CCCCNc1cc(-c2nc(-c3cc(C(=O)OCC)c(C)[nH]c3=O)cs2)ccn1
< 500	CCOC(=O)c1cc(-c2csc(CS(=O)(=O)c3ccccc3)n2)c(=O)[nH]c1C(C)C
< 500	CCCc1[nH]c(=O)c(-c2csc(CS(=O)(=O)c3ccccc3)n2)cc1C(=O)OCC
< 500	CCc1[nH]c(=O)c(-c2csc(-c3ccncc3)n2)cc1C(=O)OCCCN(CC)CC
< 500	CCOC(=O)c1cc(-c2csc(-c3ccnc(NCc4ccccc4)c3)n2)c(=O)[nH]c1C
< 500	CCOC(=O)c1cc(-c2csc(-c3ccnc(NCCNC(C)C)c3)n2)c(=O)[nH]c1C
< 500	CCOC(=O)c1cc(-c2csc(CS(=O)(=O)c3cccs3)n2)c(=O)[nH]c1C(C)C
< 500	CCOC(=O)c1cc(-c2csc(-c3c(Cl)cncc3Cl)n2)c(=O)[nH]c1C
< 500	Cc1[nH]c(=O)c(-c2csc(-c3ccncc3)n2)cc1C(=O)OC(C)(C)C
< 500	Cc1[nH]c(=O)c(-c2csc(-c3ccnc(NCC4CC4)c3)n2)cc1C(=O)NCC1CC1
< 500	CCOC(=O)c1cc(-c2csc(CS(=O)(=O)c3ccccc3)n2)c(=O)[nH]c1C
< 500	CCOC(=O)c1cc(-c2csc(CS(=O)(=O)Cc3ccc(F)cc3)n2)c(=O)[nH]c1C
< 500	CCOC(=O)c1cc(-c2csc(-c3ccncc3)n2)c(=O)[nH]c1C(C)C
< 500	CCOC(=O)c1cc(-c2csc(-c3ccnc(NCCc4cccs4)c3)n2)c(=O)[nH]c1C
< 500	CCOC(=O)c1cc(-c2csc(CS(=O)(=O)c3ccc(Cl)cc3)n2)c(=O)[nH]c1C
